{"source": "ChEMBL document CHEMBL1143305", "about": "“SAR and biological evaluation of analogues of a small molecule histone deacetylase inhibitor N-(2-aminophenyl)-4-((4-(pyridin-3-yl)pyrimidin-2-ylamino)methyl)benzamide (MGCD0103)” (Bioorg Med Chem Lett, 2009)", "key": {"[1]": {"test": "Tmax in Sprague-Dawley rat at 5 mg/kg, po up to 6 hrs", "assay_type": "ADME, organism-based", "set-up": "dose 5 mg/kg, route oral", "details": "in vivo"}, "[2]": {"test": "Metabolic stability in human microsomes assessed as biotransformation rate", "assay_type": "ADME, Microsome"}, "Histone deacetylase 8": {"biological_target": "T1, Histone deacetylase 8 (Homo sapiens, UniProt Q9BY41)", "T1 sequence (Q9BY41 whole entry)": "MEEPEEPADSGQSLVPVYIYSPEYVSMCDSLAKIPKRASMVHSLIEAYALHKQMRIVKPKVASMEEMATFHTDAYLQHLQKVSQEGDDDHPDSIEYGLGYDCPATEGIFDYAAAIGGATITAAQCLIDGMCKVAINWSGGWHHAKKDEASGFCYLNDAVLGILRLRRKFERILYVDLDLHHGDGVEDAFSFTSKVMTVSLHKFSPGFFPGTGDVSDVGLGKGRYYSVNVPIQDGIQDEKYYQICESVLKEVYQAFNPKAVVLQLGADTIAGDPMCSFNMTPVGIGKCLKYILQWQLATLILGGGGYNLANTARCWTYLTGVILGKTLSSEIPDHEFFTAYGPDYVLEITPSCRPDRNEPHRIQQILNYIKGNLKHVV", "test": "Inhibition of HDAC8"}, "Mus musculus [3]": {"system": "Mus musculus", "test": "Toxicity in mouse xenografted with human HCT15 cells at 5 to 20 mg/kg, po administered once daily for 12 days", "assay_type": "organism-based, HCT-15", "set-up": "dose 5-20 mg/kg, route oral", "details": "in vivo, 288 h"}, "[4]": {"test": "Oral bioavailability in Sprague-Dawley rat at 5 mg/kg up to 6 hrs", "assay_type": "ADME, organism-based", "details": "in vivo"}, "HCT-15 [5]": {"system": "HCT-15", "test": "Antitumor activity against human HCT15 cells xenografted in mouse at 10 mg/kg, po administered once daily for 12 days relative to control", "assay_type": "functional"}, "Histone deacetylase 2": {"biological_target": "Histone deacetylase 2 (Homo sapiens, UniProt Q92769)", "sequence (Q92769 whole entry)": "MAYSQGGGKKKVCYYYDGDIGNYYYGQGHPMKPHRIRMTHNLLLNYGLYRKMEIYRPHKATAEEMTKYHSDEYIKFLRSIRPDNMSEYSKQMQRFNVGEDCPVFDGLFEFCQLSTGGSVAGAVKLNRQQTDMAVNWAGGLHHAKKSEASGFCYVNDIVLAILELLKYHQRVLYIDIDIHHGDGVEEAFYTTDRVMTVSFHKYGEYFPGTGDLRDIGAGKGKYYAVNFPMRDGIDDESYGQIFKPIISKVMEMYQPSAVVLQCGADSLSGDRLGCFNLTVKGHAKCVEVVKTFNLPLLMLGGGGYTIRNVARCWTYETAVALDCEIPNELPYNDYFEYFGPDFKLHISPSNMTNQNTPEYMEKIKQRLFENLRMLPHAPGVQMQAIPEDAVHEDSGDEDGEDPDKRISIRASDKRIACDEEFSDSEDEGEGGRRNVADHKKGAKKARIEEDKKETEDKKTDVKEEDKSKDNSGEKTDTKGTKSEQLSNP"}, "Histone deacetylase 5": {"biological_target": "Histone deacetylase 5 (Homo sapiens, UniProt Q9UQL6)", "sequence (Q9UQL6 whole entry)": "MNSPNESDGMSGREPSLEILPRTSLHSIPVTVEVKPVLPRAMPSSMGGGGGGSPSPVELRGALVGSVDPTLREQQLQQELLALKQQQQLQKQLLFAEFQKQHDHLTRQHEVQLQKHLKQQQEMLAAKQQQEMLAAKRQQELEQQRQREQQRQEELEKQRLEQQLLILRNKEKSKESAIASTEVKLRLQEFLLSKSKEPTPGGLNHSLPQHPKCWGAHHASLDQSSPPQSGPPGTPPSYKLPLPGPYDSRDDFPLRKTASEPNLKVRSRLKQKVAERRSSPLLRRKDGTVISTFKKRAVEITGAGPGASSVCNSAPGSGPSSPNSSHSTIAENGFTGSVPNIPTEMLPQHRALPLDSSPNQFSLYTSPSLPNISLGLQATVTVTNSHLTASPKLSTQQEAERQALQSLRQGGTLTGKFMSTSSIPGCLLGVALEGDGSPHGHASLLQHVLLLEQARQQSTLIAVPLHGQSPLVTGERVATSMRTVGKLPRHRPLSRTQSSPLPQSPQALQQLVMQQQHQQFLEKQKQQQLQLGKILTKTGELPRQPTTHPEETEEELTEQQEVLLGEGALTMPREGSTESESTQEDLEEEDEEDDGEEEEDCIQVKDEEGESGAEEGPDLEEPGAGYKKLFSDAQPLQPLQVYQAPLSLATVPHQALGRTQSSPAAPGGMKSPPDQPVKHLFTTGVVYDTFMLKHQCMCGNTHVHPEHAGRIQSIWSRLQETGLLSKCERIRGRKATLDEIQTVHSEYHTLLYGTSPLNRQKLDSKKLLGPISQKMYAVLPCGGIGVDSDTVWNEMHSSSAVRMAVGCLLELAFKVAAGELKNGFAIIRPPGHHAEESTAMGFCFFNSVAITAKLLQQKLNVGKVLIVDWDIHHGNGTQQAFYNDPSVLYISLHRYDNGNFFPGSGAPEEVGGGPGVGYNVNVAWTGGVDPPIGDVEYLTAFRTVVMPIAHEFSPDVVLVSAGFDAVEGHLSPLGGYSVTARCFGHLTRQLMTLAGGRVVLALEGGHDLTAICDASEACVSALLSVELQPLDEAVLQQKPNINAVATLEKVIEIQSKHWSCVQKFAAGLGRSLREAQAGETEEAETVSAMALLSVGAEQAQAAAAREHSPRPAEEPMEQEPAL", "test": "Inhibition of HDAC5"}, "[6]": {"test": "Antitumor activity against human TSU-Pr1 cells xenografted in mouse at 10 mg/kg, po administered once daily for 12 days relative to control", "assay_type": "functional"}, "[7]": {"test": "Clearance in Sprague-Dawley rat at 2.5 mg/kg, iv up to 6 hrs", "assay_type": "ADME, organism-based", "set-up": "dose 2.5 mg/kg, route intravenous", "details": "in vivo"}, "HCT-15 [8]": {"system": "HCT-15", "test": "Antitumor activity against human HCT15 cells xenografted in mouse at 5 mg/kg, po administered once daily for 12 days relative to control", "assay_type": "functional"}, "Histone deacetylase 1": {"biological_target": "Histone deacetylase 1 (Homo sapiens, UniProt Q13547)", "sequence (Q13547 whole entry)": "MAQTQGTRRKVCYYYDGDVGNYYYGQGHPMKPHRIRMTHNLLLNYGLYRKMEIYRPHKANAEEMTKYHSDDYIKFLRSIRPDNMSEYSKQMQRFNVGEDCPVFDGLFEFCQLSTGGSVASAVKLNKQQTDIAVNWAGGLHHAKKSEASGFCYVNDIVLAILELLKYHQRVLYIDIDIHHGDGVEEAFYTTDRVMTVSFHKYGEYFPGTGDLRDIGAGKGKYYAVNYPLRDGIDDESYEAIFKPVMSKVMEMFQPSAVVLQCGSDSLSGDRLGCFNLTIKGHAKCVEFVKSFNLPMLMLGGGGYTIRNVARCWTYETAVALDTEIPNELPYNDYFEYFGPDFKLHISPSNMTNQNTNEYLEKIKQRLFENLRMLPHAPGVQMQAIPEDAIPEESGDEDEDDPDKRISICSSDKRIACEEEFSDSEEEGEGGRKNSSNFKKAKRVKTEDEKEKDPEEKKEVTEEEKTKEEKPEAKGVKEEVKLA", "test": "Inhibition of human recombinant HDAC1"}, "[9]": {"test": "Volume of distribution at steady state in Sprague-Dawley rat at 2.5 mg/kg, iv up to 6 hrs", "assay_type": "ADME, organism-based", "set-up": "dose 2.5 mg/kg, route intravenous", "details": "in vivo, read-out: Vdss"}, "[10]": {"test": "Antitumor activity against human AZ-521 cells xenografted in mouse at 10 mg/kg, po administered once daily for 12 days relative to control", "assay_type": "functional"}, "HCT-116 [11]": {"system": "HCT-116", "test": "cells", "details": "Homo sapiens", "description": "Antiproliferative activity against human HCT116 cells by MTT assay"}, "Mus musculus [12]": {"system": "Mus musculus", "test": "Toxicity in mouse xenografted with human TSU-Pr1 cells at 5 to 20 mg/kg, po administered once daily for 12 days", "assay_type": "organism-based", "set-up": "dose 5-20 mg/kg, route oral", "details": "in vivo, 288 h"}, "HMEC": {"system": "HMEC", "test": "Selectivity ratio of IC50 for HMEC to IC50 for human HCT116 cells"}, "[13]": {"test": "Solubility at pH 1.2", "assay_type": "physicochemical", "details": "buffer"}, "Mus musculus [14]": {"system": "Mus musculus", "test": "Toxicity in mouse xenografted with human AZ-521 cells at 5 to 20 mg/kg, po administered once daily for 12 days", "assay_type": "organism-based", "set-up": "dose 5-20 mg/kg, route oral", "details": "in vivo, 288 h"}, "[15]": {"test": "Metabolic stability in mouse microsomes assessed as biotransformation rate", "assay_type": "ADME, Microsome"}, "[16]": {"test": "Antitumor activity against human TSU-Pr1 cells xenografted in mouse at 20 mg/kg, po administered once daily for 12 days relative to control", "assay_type": "functional"}, "Mus musculus [17]": {"system": "Mus musculus", "test": "Toxicity in mouse xenografted with human H460 cells at 5 to 20 mg/kg, po administered once daily for 12 days", "assay_type": "organism-based", "set-up": "dose 5-20 mg/kg, route oral", "details": "in vivo, 288 h"}, "[18]": {"test": "Metabolic stability in rat microsomes assessed as biotransformation rate", "assay_type": "ADME, Microsome"}, "T-24": {"system": "T-24", "test": "Induction of histone H4 hyperacetylation in human T24 cells after 16 hrs by immunoblotting", "assay_type": "functional, cell-based", "details": "T-24, 16 h"}, "Histone deacetylase 3": {"biological_target": "Histone deacetylase 3 (Homo sapiens, UniProt O15379)", "sequence (O15379 whole entry)": "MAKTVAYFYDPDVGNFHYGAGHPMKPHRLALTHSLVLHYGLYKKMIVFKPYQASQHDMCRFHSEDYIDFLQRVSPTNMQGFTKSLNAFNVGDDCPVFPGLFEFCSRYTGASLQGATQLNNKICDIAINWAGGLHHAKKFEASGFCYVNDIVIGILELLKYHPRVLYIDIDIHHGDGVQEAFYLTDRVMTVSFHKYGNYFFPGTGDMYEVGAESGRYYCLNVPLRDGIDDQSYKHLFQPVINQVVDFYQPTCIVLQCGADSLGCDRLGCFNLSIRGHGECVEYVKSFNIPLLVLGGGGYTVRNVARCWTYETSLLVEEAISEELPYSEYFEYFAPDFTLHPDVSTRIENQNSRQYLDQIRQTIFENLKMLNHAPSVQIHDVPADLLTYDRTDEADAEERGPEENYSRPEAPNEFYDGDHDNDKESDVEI", "test": "Inhibition of HDAC3"}, "[19]": {"biological_target": "T2, Protein deacetylase HDAC6 (Homo sapiens, UniProt Q9UBN7)", "T2 sequence (Q9UBN7 whole entry)": "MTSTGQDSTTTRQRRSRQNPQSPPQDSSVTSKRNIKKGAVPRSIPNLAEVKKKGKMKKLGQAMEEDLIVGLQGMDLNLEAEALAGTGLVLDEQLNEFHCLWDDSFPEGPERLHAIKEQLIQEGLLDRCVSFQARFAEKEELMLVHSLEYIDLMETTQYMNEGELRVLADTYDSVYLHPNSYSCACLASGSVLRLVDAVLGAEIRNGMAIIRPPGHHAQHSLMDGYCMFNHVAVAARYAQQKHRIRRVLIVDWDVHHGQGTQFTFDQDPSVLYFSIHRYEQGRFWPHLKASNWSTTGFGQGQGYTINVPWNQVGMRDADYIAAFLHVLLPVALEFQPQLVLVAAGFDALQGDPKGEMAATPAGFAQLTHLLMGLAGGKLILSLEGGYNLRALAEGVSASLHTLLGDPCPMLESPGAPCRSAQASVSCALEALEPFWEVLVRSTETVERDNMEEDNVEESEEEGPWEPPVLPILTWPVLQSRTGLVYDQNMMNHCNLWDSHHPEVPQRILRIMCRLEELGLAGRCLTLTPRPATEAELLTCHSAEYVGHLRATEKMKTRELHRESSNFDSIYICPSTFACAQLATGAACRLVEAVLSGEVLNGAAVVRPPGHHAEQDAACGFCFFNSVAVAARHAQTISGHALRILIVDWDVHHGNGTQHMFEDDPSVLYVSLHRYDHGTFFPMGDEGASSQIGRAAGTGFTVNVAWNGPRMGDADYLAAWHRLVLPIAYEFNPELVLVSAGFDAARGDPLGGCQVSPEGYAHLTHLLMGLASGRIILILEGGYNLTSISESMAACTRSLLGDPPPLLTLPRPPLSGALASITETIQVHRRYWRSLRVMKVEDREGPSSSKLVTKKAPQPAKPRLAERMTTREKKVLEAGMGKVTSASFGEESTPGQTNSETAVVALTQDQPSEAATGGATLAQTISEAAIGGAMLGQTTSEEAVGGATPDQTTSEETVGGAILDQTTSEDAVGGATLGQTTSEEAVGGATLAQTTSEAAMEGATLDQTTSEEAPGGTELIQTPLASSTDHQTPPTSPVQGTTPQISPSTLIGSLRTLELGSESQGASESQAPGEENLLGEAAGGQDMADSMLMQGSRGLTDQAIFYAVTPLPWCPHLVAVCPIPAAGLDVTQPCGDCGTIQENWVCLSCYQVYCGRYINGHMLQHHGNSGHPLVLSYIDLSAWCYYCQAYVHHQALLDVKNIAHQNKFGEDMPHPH", "test": "Inhibition of HDAC6"}, "[20]": {"test": "Terminal half life in Sprague-Dawley rat at 2.5 mg/kg, iv up to 6 hrs", "assay_type": "ADME, organism-based", "set-up": "dose 2.5 mg/kg, route intravenous", "details": "in vivo, read-out: beta t1/2 (converted)"}, "HCT-116 [21]": {"system": "HCT-116", "test": "Induction of p21WAF1/CIP1 expression in human HCT116 cells assessed as […] after 16 hrs by luciferase assay", "assay_type": "functional, cell-based"}}, "note": "Activity calls are given as the source filed them. The calls are words filed in the database; no cut-off is given here.", "data": [{"smiles": "Nc1ccccc1NC(=O)c1ccc(CNc2nccc(-c3ccn[nH]3)n2)cc1", "values": [{"measurement": "Tmax", "setting": "[1]", "value": 30, "unit": "min"}, {"measurement": "Activity", "setting": "[2]", "value": 0.01, "unit": "nmol/mg/min"}, {"measurement": "IC50", "setting": "Histone deacetylase 8", "value": "> 10000", "unit": "nM"}, {"measurement": "Activity", "setting": "Mus musculus [3]", "value": "Non-toxic"}, {"measurement": "bioavailability", "setting": "[4]", "value": 16, "unit": "%"}, {"measurement": "T/C", "setting": "HCT-15 [5]", "value": 63, "unit": "%"}, {"measurement": "IC50", "setting": "Histone deacetylase 2", "value": 140, "unit": "nM"}, {"measurement": "IC50", "setting": "Histone deacetylase 5", "value": "> 10000", "unit": "nM"}, {"measurement": "T/C", "setting": "[6]", "value": 61, "unit": "%"}, {"measurement": "clearance", "setting": "[7]", "value": 9.17, "unit": "mL/min/kg"}, {"measurement": "T/C", "setting": "HCT-15 [8]", "value": 79, "unit": "%"}, {"measurement": "IC50", "setting": "Histone deacetylase 1", "value": 140, "unit": "nM"}, {"measurement": "Vd", "setting": "[9]", "value": 0.13, "unit": "L/kg"}, {"measurement": "T/C", "setting": "[10]", "value": 53, "unit": "%"}, {"measurement": "IC50", "setting": "HCT-116 [11]", "value": 300, "unit": "nM"}, {"measurement": "Activity", "setting": "Mus musculus [12]", "value": "Non-toxic"}, {"measurement": "Ratio IC50", "setting": "HMEC", "value": ">30"}, {"measurement": "solubility", "setting": "[13]", "value": "> 1000", "unit": "µg/mL"}, {"measurement": "Activity", "setting": "Mus musculus [14]", "value": "Non-toxic"}, {"measurement": "Activity", "setting": "[15]", "value": 0.054, "unit": "nmol/mg/min"}, {"measurement": "T/C", "setting": "[16]", "value": 48, "unit": "%"}, {"measurement": "Activity", "setting": "Mus musculus [17]", "value": "Non-toxic"}, {"measurement": "Activity", "setting": "[18]", "value": 0.043, "unit": "nmol/mg/min"}, {"measurement": "EC50", "setting": "T-24", "value": 1000, "unit": "nM"}, {"measurement": "IC50", "setting": "Histone deacetylase 3", "value": 320, "unit": "nM"}, {"measurement": "IC50", "setting": "[19]", "value": "> 20000", "unit": "nM"}, {"measurement": "half-life", "setting": "[20]", "value": 72, "unit": "min"}, {"measurement": "Activity", "setting": "HCT-116 [21]", "value": "inactive"}]}]}
